{"source": "patent US20230126375A1", "about": "“ENGINEERED BACTERIA AND METHODS OF PRODUCING SUSTAINABLE BIOMOLECULES” (PRESIDENT AND FELLOWS OF HARVARD COLLEGE, priority 2020, published 2023)", "system": "β-oxidation", "assay": "PHA co-polymer composition of lithotrophic C. necator strains with acrylic acid (GCMS of 3-hydroxy acid methyl esters)", "assay_type": "cell-based", "method": "PHA extraction and analysis: After 48 hr of growth in the second media exchange, 100 ml lithotrophic PHA-producing C. necator cultures were induced with 0.3% arabinose where indicated along with 240 ug/mL acrylic acid where indicated and grown for 5 days at 30° C. Cultures were harvest, pelleted, and lyophilized overnight. Freeze dried pellets were weighed for dry cell weight. PHA was purified with 0.2 ml/mg DCW of 13% NaClO^− for 4 hr at 30° C., washed twice with dH2O, washed once with acetone, then dried at 25° C. overnight. 1:1 methanol and HCl in dioxane to a final volume of 3 ml (1% pentadecanoate as internal standard), the tubes were sealed with crimp top and incubated in oil bath at 90° C. for 20 hr. Tubes were placed on ice, once cooled, 2 ml of chloroform was added and vigorously vortexed, 3 ml of dH2O was added followed by extensive vortexing, the organic phase was separated by centrifugation (10 min, 4,000×g), organic phase removed and stored at −20° C. until GCMS analysis.\nGCMS analysis: PHA samples were analyzed by GC-MS 5975/7890 (Agilent Technologies™) on a DB-35 ms column. Samples were heated on a gradient from 40 to 250° C. at 5° C./min. The co-polymer composition was determined with the mass spectra of the 3-hydroxy alkanoic acid methyl esters at m/z=103 and NIST Mass Spectral Library™.", "note": "“Also recorded” adds a separate entry of the source.", "data": [{"molecule": "C=CC(=O)O", "note": "[acrylic acid]", "values": [{"measurement": "effect on PHA composition", "setting": "PAS826 (wildtype phaC) and PAS827 (ΔphaC), 240 μg/mL acrylic acid with induction", "result": "no effect; also recorded: not strongly affected"}, {"measurement": "proportion of 3HO and 3HD", "setting": "PAS828, 240 μg/mL acrylic acid", "result": "decreased to undetectable levels"}, {"measurement": "contribution to PHA composition", "setting": "PAS828 / PAS829 (UcFatB2, phaC1Pa), 240 μg/mL acrylic acid", "result": "did not contribute significantly"}, {"measurement": "copolymer composition compared to no-acrylic acid condition", "setting": "PAS829, 240 μg/mL acrylic acid", "result": "slightly enriched for longer-chain fatty acids"}, {"measurement": "mcl-3HA proportion of PHA", "setting": "PAS830 (native phaC, chim4, phaC1Ps), with acrylic acid, mean", "result": 72.6, "unit": "%"}, {"measurement": "3HO proportion of PHA", "setting": "PAS830, with acrylic acid, mean", "result": 54.6, "unit": "%"}, {"measurement": "enrichment of mcl-3HAs", "setting": "PAS831, after the addition of acrylic acid", "result": "minor enrichment"}, {"measurement": "3HD proportion of PHA", "setting": "PAS831, with acrylic acid, n=2", "result": 7.1, "unit": "%"}, {"measurement": "3HDD proportion of PHA", "setting": "PAS831, with acrylic acid, n=2", "result": 2.6, "unit": "%"}, {"measurement": "3HO proportion of PHA", "setting": "PAS831, with acrylic acid, n=2", "result": 61.4, "unit": "%"}, {"measurement": "3HTD proportion of PHA", "setting": "PAS831, with acrylic acid, n=2", "result": 1.2, "unit": "%"}, {"measurement": "mcl-3HA proportion of PHA", "setting": "PAS832 (native phaC, UcFatB2, phaC2Pa), with acrylic acid, n=3", "result": 59.4, "unit": "%"}, {"measurement": "3HDD proportion of PHA", "setting": "PAS832, with acrylic acid, n=3", "result": 36.3, "unit": "%"}, {"measurement": "3HDD proportion of PHA", "setting": "PAS833 (ΔphaC, UcFatB2, phaC2Pa), with acrylic acid", "result": 60.3, "unit": "%"}]}]}
